From patent US8153676B2, “Use of compounds of formula A-R-Xo pharmaceutically acceptable salts thereof for producing a pharmaceutically preparations” (priority 2006, dated 2012)
pIC50: −log10 of the molar value.

Assays:
HepG2 liver cancer cells = assay: Migration test of HepG2 cells in collagen matrix; type: cell-based; settings: for Mean migratory activity: control 15%; for drop of migratory activity of the cells: control migratory activity 15%, 900 minutes
Protocol: Migration test conditions: HepG2 liver cancer cells were embedded in a collagen matrix. Thirty individual cells were inspected continuously by photographic means for 900 minutes. The average percentage of migrating cells was determined. Result 2: […]

cytochrome P450 [1] = assay: In vitro inhibition of cytochrome P450 activity; type: biochemical; settings: for in vitro inhibition of cytochrome P450 activity: compared with 10-undecinyl acid
cytochrome P450 [2] = assay: In vivo activity (cytochrome P450 inhibition)
HepG2 (liver cells) = assay: Antineoplastic effect: cancer cell proliferation, cell count after four day incubation; type: cell-based; settings: read-out: half maximum inhibitory concentration IC50 (cancer cell proliferation)
Protocol: (§1) To this end, four cancer cell lines were seeded into “24 well plates” and allowed to grow for 24 hours. Then a wide array of the concentrations of the test substance 12-imidazolyl-1-dodecanol, dissolved in DMSO, was added to the cell suspensions. The DMSO concentration in the cell medium was 0.01%. […] In all cases a strong inhibition of cancer cell proliferation was determined.
(§2) The following half maximum inhibitory concentrations—IC50 values—of 12-imidazolyl-1-dodecanol were determined: […]

Panc-1 (pancreas cells) [3] = assay: as above; type: cell-based; settings: Panc-1, four day incubation, read-out: half maximum inhibitory concentration IC50 (cancer cell proliferation)
Protocol: as §1, §2

[4] = test system: SW620 (large intestine cells); assay: as above; type: cell-based; settings: read-out: half maximum inhibitory concentration IC50 (cancer cell proliferation)
Protocol: as §1, §2

PC-3 (prostate cells) = assay: as above; type: cell-based; settings: PC-3, four day incubation, read-out: half maximum inhibitory concentration IC50 (cancer cell proliferation)
Protocol: as §1, §2

male CD rats = assay: Acute toxicity in male CD rats; type: in vivo
Protocol: (§3) The acute toxicity of 12-imidazolyl-1-dodecanol (substance 1) and 12-(1)-imidazolyl-dodecane (substance 2) was tested in male CD rats. For 12-imidazolyl-1-dodecanol the result was an LD50 (14 days) of 1,000 mg/kg, b.w., p.o.; and for 12-(1)-imidazolyl-dodecane an LD50 (14 days) of 1,000 mg/kg b.w., p.o.

Panc-1 (pancreas cells) [5] = assay: LDH cytotoxicity test; type: cell-based; settings: Panc-1, LDH cytotoxicity test
Protocol: (§4) The half maximum cytotoxicity of 12-imidazolyl-1-dodecanol was determined with the LDH cytotoxicity test.

[6] = test system: MRC-5 (lung fibroblast cells); assay: LDH cytotoxicity test; type: cell-based; settings: MRC-5, LDH cytotoxicity test
Protocol: as §4

[7] = Acute toxicity in male CD rats; type: in vivo; settings: male, CD, rat, in vivo, po
Protocol: as §3

[8] = male, CD, rat, in vivo, po, 14 days

insulin: insulin added to HepG2 cells to stimulate migratory activity [reference compound]
Mean migratory activity (HepG2 liver cancer cells; insulin (100 ng/ml) alone): 38%
increase in the migratory activity (times) (HepG2 liver cancer cells; insulin versus control): 2.5 times

C#CCCCCCCCCC(C)(C)C(=O)O [2,2-dimethyl-11-dodecinyl acid]
in vitro inhibition of cytochrome P450 activity (cytochrome P450 [1]): comparably high inhibition
in vivo activity compared with 10-undecinyl acid (cytochrome P450 [2]): far superior

C#CCCCCCCCCCCCCCCCC(=O)O [17-octadecinyl-1-acid]
effectiveness in vitro (cytochrome P450 [1]): especially effective in vitro

12-imidazolyl-1-dodecanol
drop of migratory activity of the cells (HepG2 liver cancer cells; 1 μM in matrix medium): 50%
drop of migratory activity of the cells (HepG2 liver cancer cells; 10 μM in matrix medium): 75%
Mean migratory activity (HepG2 liver cancer cells; insulin and 12-imidazolyl-1-dodecanol (10 μl)): 15%
effect on insulin-induced increase in migratory activity (HepG2 liver cancer cells; with insulin, after 450 min. observation time): blocks this increase completely
mean migratory activity below that of the control group (HepG2 liver cancer cells; with insulin, after 900 minutes): 13%
pIC50 (HepG2 (liver cells)): 7.30
pIC50 (Panc-1 (pancreas cells) [3]): 7.30
pIC50 [4]: 7.00
pIC50 (PC-3 (prostate cells)): 7.30
First intolerance reaction (male CD rats; male CD rats, p.o.): substance 1: 1,000 mg/kg b.w., p.o.
No effect at the dose rate (male CD rats; male CD rats, p.o.): substance 1: 500 mg/kg b.w., p.o.
LD50 (14 days) (male CD rats; male CD rats, p.o., 14 days): 1,000 mg/kg, b.w.
half maximum cytotoxicity (Panc-1 (pancreas cells) [5]): 500 µM
half maximum cytotoxicity (as restated in text) (Panc-1 (pancreas cells) [5]): 500 μm
half maximum cytotoxicity [6]: 500 µM

CCCCCCCCCCCCn1ccnc1 [12-(1)-imidazolyl-dodecane]
LD50 at 14 days [7]: 1000 mg/kg
First intolerance reaction (male CD rats; [8]): substance 2: 500 mg/kg b.w., p.o.
No effect at the dose rate (male CD rats; [8]): substance 2: 250 mg/kg b.w., p.o.

C#CCCCCCCCCCOS(=O)(=O)O [10-undecinyl-sulfate]
in vitro inhibition of cytochrome P450 activity (cytochrome P450 [1]): comparably high inhibition
in vivo activity compared with 10-undecinyl acid (cytochrome P450 [2]): far superior
